Reference: patent publication US9918966B2, “Anti-cancer compositions and methods” (The Penn State Research Foundation, priority 2013, dated 2018)

How the values were obtained:
1205 Lu melanoma cells [1] = experiment: Apo-ONE caspase-3/7 assay (apoptosis); assay type: cell-based, human; settings: 72 h, dose dependent up to 25 μmol/L
From the text: (§1) Data represent averages of at least 3 independent experiments; bars; S.E.M.

UACC 903 melanoma cells [2] = experiment: Apo-ONE caspase-3/7 assay (apoptosis); assay type: cell-based, human
From the text: as §1

1205 Lu melanoma cells [3] = experiment: Cell proliferation ELISA BrdU; assay type: cell-based, human; settings: 72 h, increasing concentrations
From the text: as §1
(§2) Percentage of proliferating and apoptotic cells are quantified by a colorimetric using cell proliferation ELISA BrdU kit (Roche Applied Sciences, Indianapolis, Ind.) and Apo-ONE Homogenous caspase-3/7 assay kit (Promega, Madison Wis.), as described in Sharma A, et al., Clin Cancer Res 2009; 15:1674-85; and Madhunapantula S V, et al., Mal Cancer Ther 2008; 7:1297-308.

UACC 903 melanoma cells [4] = experiment: Cell proliferation ELISA BrdU; assay type: cell-based, human; settings: UACC 903, 72 h, increasing concentrations
From the text: as §1, §2

1205 Lu melanoma cells [5] = experiment: Cell cycle analysis, propidium iodide FACScan; assay type: cell-based, human; settings: 72 h
Protocol: (§3) The effect of selenocoxib-1-GSH on cell cycle distribution is measured by analyzing propidium iodide stained 1205 Lu and UACC 903 cells using a BD FACScan. […] Total floating and adherent cells are collected following trypsinization and stained using a 1 mL propidium iodide solution containing 100 μg/mL propidium iodide; (Sigma, St Louis, Mo.), 20 μg/mL Ribonuclease A (Roche diagnostics, Indianapolis, Ind.) and 3 μg/mL Triton X-100 dissolved in 0.1% (W/V) sodium citrate for 30 m at 4° C.
(§4) Selenocoxib-1-GSH treatment increases the sub-G0-G1 cell population, which is indicative of cellular apoptosis. […] Total floating and adherent cells are collected, and stained with propidium iodide to analyze the distribution of cells in different phases of the cell cycle stages using a FACScan analyzer. […] Data represents an average of 2 independent experiments.

UACC 903 melanoma cells [6] = experiment: Cell cycle analysis, propidium iodide FACScan; assay type: cell-based, human; settings: 72 h
Protocol: as §3, §4

1205 Lu melanoma cells [7] = experiment: Western blot analysis; assay type: cell-based, human
From the text: (§5) Cell lysates are harvested and processed as described in Sharma A et al., Cancer Res 2006, 66:8200-9. […] Protein lysates are collected for Western blotting. Blots are probed with total and phospho-Akt (Ser473), phospho-PRAS40 (Thr246), phospho-Erk1/2 (Thr202/Tyr204), total and Phospho-Mek1/2 (Ser217) and cleaved PARP from Cell Signaling Technology (Danvers, Mass.). Total PRAS40 from Invitrogen (Carlsbad, Calif.). Total Erk, cyclin D1, p27, Alpha-enolase and secondary antibodies conjugated with horseradish peroxidase from Santa Cruz Biotechnology (Santa Cruz Biotechnology, Santa Cruz, Calif.). COX-1 and COX-2 antibodies were obtained from Cayman Chemical Company, Ann Arbor, Mich. Immunoblots are developed using the enhanced chemiluminescence detection system (Amersham Pharmacia Biotech, Piscataway, N.J.).

UACC 903 melanoma cells [8] = experiment: Western blot analysis; assay type: cell-based, human
From the text: as §5

Human recombinant COX-2 = biological target: T1, Human recombinant COX-2 (Homo sapiens, UniProt P35354); assay type: biochemical; settings: 0.2, 2.0 and 20 nM; DMSO = 100% activity; FIG. 2C
T1 construct: purchased Cayman Chemical, Ann Arbor, Mich
T1 sequence (P35354 18-604): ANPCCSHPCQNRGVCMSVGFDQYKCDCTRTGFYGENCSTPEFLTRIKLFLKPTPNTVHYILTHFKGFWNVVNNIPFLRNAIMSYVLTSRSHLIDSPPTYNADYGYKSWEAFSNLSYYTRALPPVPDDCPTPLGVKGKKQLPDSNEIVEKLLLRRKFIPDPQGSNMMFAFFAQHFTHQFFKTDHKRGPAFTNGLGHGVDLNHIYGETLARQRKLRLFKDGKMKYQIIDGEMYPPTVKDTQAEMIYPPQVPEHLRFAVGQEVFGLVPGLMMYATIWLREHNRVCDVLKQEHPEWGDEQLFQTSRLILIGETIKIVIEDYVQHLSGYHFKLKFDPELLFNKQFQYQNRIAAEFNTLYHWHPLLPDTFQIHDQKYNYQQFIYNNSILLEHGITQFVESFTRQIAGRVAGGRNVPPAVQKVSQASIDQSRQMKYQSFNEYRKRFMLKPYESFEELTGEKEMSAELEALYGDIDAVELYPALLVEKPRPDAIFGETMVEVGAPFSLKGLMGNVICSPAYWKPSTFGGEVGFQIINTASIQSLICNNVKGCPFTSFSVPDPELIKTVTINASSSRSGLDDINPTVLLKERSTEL

[9] = tested on: various cancer cell lines; experiment: Killing of various cancer cell lines compared with normal fibroblast cells; assay type: cell-based, human; settings: MiaPaca-2, MDA-MB-231, PC-3, HT-1080, Caco2 versus normal fibroblast cells
From the text: Therapeutic universality of selenocoxib-1-GSH for killing cancer cells is examined by treating pancreatic (MiaPaca-2), breast (MDA-MB-231), prostate (PC-3) or sarcoma (HT-1080) and colon (Caco2) cell. lines with the drug and establishing the IC50 for each cell line, Table III. Selenocoxib-1-GSH kills the various cancer cell lines at 2-3-fold lower concentrations than normal fibroblast cells.

`NC(CCC(=O)NC(CS[Se]Cc1cc(-c2ccccc2)n(-c2ccc(S(N)(=O)=O)cc2)n1)C(=O)NCC(=O)O)C(=O)O` (centres unmarked) [Selenocoxib-1-GSH, selenocoxib-1-glutathione] was tested, and the caspase-3/7 activity (1205 Lu melanoma cells [1]) was “increases caspase-3/7 activity”, the caspase-3/7 activity (UACC 903 melanoma cells [2]; UACC 903, 50 μmol/L, 72 h) was “significant decrease” and the caspase-3/7 activity (UACC 903 melanoma cells [2]; UACC 903, 72 h, dose dependent up to 25 μmol/L) was “increases caspase-3/7 activity”. The “cell proliferation (BrdU incorporation)” value (1205 Lu melanoma cells [3]) was “reduces proliferation”, the “cell proliferation (BrdU incorporation)” value (UACC 903 melanoma cells [4]) was “reduces proliferation” and the “increase of sub-G0-G1 population cells” value (1205 Lu melanoma cells [5]; 25 μmol/L) was 6.2 fold. The cell cycle progression (1205 Lu melanoma cells [5]; 12.5 and 25 μmol/L) was “inhibits cell cycle progression”, the “increase of sub-G0-G1 population cells” value (UACC 903 melanoma cells [6]; UACC 903, 25 μmol/L) was 4.7 fold and the cell cycle progression (UACC 903 melanoma cells [6]; UACC 903, 12.5 and 25 μmol/L) was “inhibits cell cycle progression”. For the same molecule, the “cleaved PARP protein” value (1205 Lu melanoma cells [7]) was “elevates levels of cleaved PARP protein”, the “expression of cyclin-D1” value (1205 Lu melanoma cells [7]) was “inhibits the expression of cyclin-D1” and the “levels of p27” value (1205 Lu melanoma cells [7]) was “increases the levels of p27”. For the same molecule, the pErk1/2 levels (1205 Lu melanoma cells [7]; 15 and 20 μmol/L) was “increased pErk1/2 levels”, the pPRAS40 (1205 Lu melanoma cells [7]; 72 h) was “reduces expression” and the Akt phosphorylation (1205 Lu melanoma cells [7]; 72 h, increasing concentrations, compared to celecoxib) was “inhibited the Akt phosphorylation in a dose dependent manner”. For the same molecule, the “cleaved PARP protein” value (UACC 903 melanoma cells [8]; UACC 903) was “elevates levels of cleaved PARP protein”, the “expression of cyclin-D1” value (UACC 903 melanoma cells [8]; UACC 903) was “inhibits the expression of cyclin-D1” and the “levels of p27” value (UACC 903 melanoma cells [8]; UACC 903) was “increases the levels of p27”. For the same molecule, the pErk1/2 levels (UACC 903 melanoma cells [8]; UACC 903, 15 and 20 μmol/L) was “increased pErk1/2 levels”, the pPRAS40 (UACC 903 melanoma cells [8]; UACC 903, 72 h) was “reduces expression” and the Akt phosphorylation (UACC 903 melanoma cells [8]; UACC 903, 72 h, increasing concentrations, compared to celecoxib) was “inhibited the Akt phosphorylation in a dose dependent manner”. For the same molecule, the COX-2 inhibitory activity (Human recombinant COX-2) was “retain COX-2 inhibitory activity” and the “lower concentrations killing cancer cell lines than normal fibroblast cells” value [9] was 2-3 fold.
